Test results from ChEMBL document CHEMBL2346642, “Antioxidant and antiproliferative activity of glycosides obtained by biotransformation of xanthohumol” (Bioorg Med Chem Lett, 2013).
pIC50: −log10 of the molar value.

How the values were obtained:
[1] = test system: PC-3; test: Antiproliferative activity against human PC3 cells after 72 hrs by SRB assay; format: functional, cell-based; details: for pIC50: Homo sapiens, PC-3, 72 h, read-out: IC50
[2] = test system: MCF7; test: Antiproliferative activity against human MCF7 cells after 72 hrs by SRB assay; format: functional, cell-based; details: MCF7, 72 h
[3] = test system: HT-29; test: Antiproliferative activity against human HT-29 cells after 72 hrs by SRB assay; format: functional, cell-based; details: for pIC50: Homo sapiens, HT-29, 72 h, read-out: IC50
[4] = test system: Radical scavenging activity; test: Antioxidant activity assessed as DPPH radical scavenging activity by UV-vis spectrophotometry analysis; format: functional

Row | Structure (SMILES) | pIC50 [1] | pIC50 [2] | pIC50 [3] | pIC50 [4] | IC50 ([1]; pc-3) | IC50 ([3]; ht-29)
1 | COc1cc(O[C@@H]2O[C@H](CO)[C@@H](O)[C@H](O)[C@H]2O)c(CC=C(C)C)c(O)c1C(=O)/C=C/c1ccc(O)cc1 [XANTHOHUMOL-4'-O-BETA-D-GLUCOPYRANOSIDE] | 4.24 | 4.29 | 4.20 | 6.11 | – | –
2 | O=C1O[C@H]([C@@H](O)CO)C(O)=C1O [ASCORBIC ACID] | – | – | – | 6.28 | – | –
3 | COc1cc(O[C@@H]2O[C@H](CO)[C@@H](OC)[C@H](O)[C@H]2O)c(CC=C(C)C)c(O)c1C(=O)/C=C/c1ccc(O)cc1 | 4.32 | 4.70 | 4.29 | 5.04 | – | –
4 | COc1cc(O)c(CC=C(C)C)c(O)c1C(=O)/C=C/c1ccc(O)cc1 [XANTHOHUMOL] | – | – | – | 5.70 | – | –
5 | COc1cc(O[C@@H]2O[C@H](CO)[C@@H](O)[C@H](O)[C@H]2O)c(CC=C(C)C)c2c1C(=O)C[C@@H](c1ccc(O)cc1)O2 | – | 3.83 | – | 5.21 | Not Active | Not Active
